Data from article PMC4501119, “Cholestenoic acid, an endogenous cholesterol metabolite, is a potent γ-secretase modulator” (Molecular Neurodegeneration, 2015).
“And” between values parts separate entries of the source, which are not always exact repeats. Identical values can stand only once.

Legend:
[1] = tested on: Aβ42 in CHO-2B7 cells (CHO cells stably overexpressing APP695); experiment: Cell-based Aβ sandwich ELISA of conditioned media from CHO-2B7 cells treated 16 h; design: species or system Chinese hamster
Method: Chinese hamster ovary (CHO) cells stably overexpressing APP695 (CHO-2B7 cells) were grown in Ham’s F-12 medium (Life Technologies) supplemented with 10 % fetal bovine serum and 100 units/ml of penicillin and 100 μg/ml streptomycin. Cells were grown at 37 °C in a humidified atmosphere containing 5 % CO2 in tissue culture plates (Costar). The cells were harvested at confluence and then utilized for biochemical analyses. Compounds were dissolved in dimethyl sulfoxide (DMSO) and screened in CHO-2B7 cells. The cells were incubated for 16 h in the presence of the compound diluted into OptiMEM-reduced serum medium (Life Technologies, Carlsbad, CA, USA) containing 1 % fetal bovine serum.
Monoclonal antibodies to Aβ were generated by the Mayo Clinic Immunology Core facilities (Jacksonville, FL, USA). Ab5 recognizes an epitope in the amino terminus of Aβ (Aβ1-16), recognizes both monomeric and aggregated Aβ, and is human specific. […] Ab 2.1.3 was raised against Aβ35-42 and is specific for Aβx-42. […] Total Aβ level was determined by capture with Ab5 and detected with horseradish peroxidase (HRP)-conjugated 4G8 (a monoclonal antibody against Aβ17-24; Covance, Waltham, MA, USA) with the other Aβ peptides detected with HRP-conjugated Ab5. For the cell-free assay and measuring mouse endogenous Aβ, HRP-conjugated 4G8 was used as the secondary detection antibody. Aβ standards (Bachem, King of Prussia, PA, USA) were prepared by dissolving in hexafluoroisopropanol (HFIP) at 1 mg/ml with sonication, dried under nitrogen, resuspended at 2 mg/ml HFIP, sonicated again and dried under nitrogen. The resulting Aβ was resuspended in 0.01 % ammonium hydroxide, portioned into aliquots in EC buffer, and frozen at −80 °C.

γ-secretase = target: T1, γ-secretase (Homo sapiens, UniProt P49768); experiment: In vitro γ-secretase (broken cell) assay, membranes of H4 neuroglioma cells overexpressing APP695wt, Aβ ELISA; format: biochemical; details: vs DMSO control, 2 h incubation
T1 construct: The membrane derived from the H4 neuroglioma cells overexpressing APP695wt were prepared by carbonate extraction; endogenous in cells; host or cells: H4 neuroglioma cells overexpressing APP695wt (membranes, carbonate extraction)
Method: Broken cell assays were performed with slight modifications from the previous studies. The membrane derived from the H4 neuroglioma cells overexpressing APP695wt were prepared by carbonate extraction and incubated at 37 °C for 2 h with CA at various concentrations. Aβ levels were quantified by sandwich ELISAs. For Aβ and AICD spectra, the recombinant C100Flag proteins were overexpressed and purified from Escherichia coli BL21 using a HiTrap Q-column (GE Life Science, Little Chalfont, U.K.). The membrane containing γ-secretase was isolated from the CHO S-1 cell line using sodium carbonate (100 mM, pH 11.0). For the in vitro γ-secretase assay, C100Flag recombinant protein at 25 μM was incubated with the membrane (100 μg/mL) in the presence of CA (20 μM) and DMSO in 150 mM sodium citrate buffer (pH 6.8) containing complete protease inhibitor (Roche, Indianapolis, IN) for 2 h at 37 °C.
Monoclonal antibodies to Aβ were generated by the Mayo Clinic Immunology Core facilities (Jacksonville, FL, USA). Ab5 recognizes an epitope in the amino terminus of Aβ (Aβ1-16), recognizes both monomeric and aggregated Aβ, and is human specific. […] Ab 2.1.3 was raised against Aβ35-42 and is specific for Aβx-42. […] For cell-based screens, Aβ was captured from conditioned medium with either Ab5, Ab38, Ab13.1.1, or Ab2.1.3 (coated at 10-50 μg/ml in EC buffer: 5 mM NaH2PO4-H2O, 20 mM Na2HPO4, 400 mM NaCl, 2.5 mM EDTA-full name, 151.5 μM BSA, 813 μM CHAPS, and 7.7 mM NaN3) on Immulon 4HBX Flat-Bottom Microfilter 96-well plates (Thermo Scientific, Waltham, MA, USA). Total Aβ level was determined by capture with Ab5 and detected with horseradish peroxidase (HRP)-conjugated 4G8 (a monoclonal antibody against Aβ17-24; Covance, Waltham, MA, USA) with the other Aβ peptides detected with HRP-conjugated Ab5. For the cell-free assay and measuring mouse endogenous Aβ, HRP-conjugated 4G8 was used as the secondary detection antibody. Aβ standards (Bachem, King of Prussia, PA, USA) were prepared by dissolving in hexafluoroisopropanol (HFIP) at 1 mg/ml with sonication, dried under nitrogen, resuspended at 2 mg/ml HFIP, sonicated again and dried under nitrogen. The resulting Aβ was resuspended in 0.01 % ammonium hydroxide, portioned into aliquots in EC buffer, and frozen at −80 °C. Following these steps, the Aβ is monomeric, as determined by size-exclusion chromatography.

[2] = CHO-2B7 cells, dose response, ELISA

CC(CCC[C@@H](C)C(=O)O)[C@H]1CCC2C3CC=C4C[C@@H](O)CC[C@]4(C)C3CC[C@@]21C (stereo partly drawn) [Cmpd 2a, 25(R)-cholestenoic acid]
Aβ38 level [1, 2]: increased | total Aβ level [1, 2]: without alterations | EC50 ([1]; Cricetulus griseus, CHO-2B7, 16 h, lowering Aβ42, CHO-2B7 cells, 16 h, ELISA): ~0.25 µM | EC90 ([1]; Cricetulus griseus, decreasing Aβ42, CHO-2B7 cells): 3 µM | change in total Aβ levels (γ-secretase): without any significant changes | decrease of Aβ42 production (γ-secretase; CA at 150 μM, listed as CA): 50% and 51%
